Data as given in patent US8741944B2, “Anti-infective agents against intracellular pathogens” (priority 2007, dated 2014).
Where two headings read alike, the source gives them in different places.

Columns and labels:
SW-620 (Colon Cancer) = assay: NCI DTP tumor cell line screen (SRB), SW-620
Protocol: (§1) For a typical screening experiment, cells are inoculated into 96 well microtiter plates in 100 μL at plating densities ranging from 5,000 to 40,000 cells/well depending on the doubling time of individual cell lines. After cell inoculation, the microtiter plates are incubated at 37° C., 5% CO2, 95% air and 100% relative humidity for 24 h prior to addition of experimental drugs.
(§2) After 24 h, two plates of each cell line are fixed in situ with TCA, to represent a measurement of the cell population for each cell line at the time of drug addition (Tz). Experimental drugs are solubilized in dimethyl sulfoxide at 400-fold the desired final maximum test concentration and stored frozen prior to use. At the time of drug addition, an aliquot of frozen concentrate is thawed and diluted to twice the desired final maximum test concentration with complete medium containing 50 μg/ml gentamicin. Additional four, 10-fold or ½ log serial dilutions are made to provide a total of five drug concentrations plus control. Aliquots of 100 μl of these different drug dilutions are added to the appropriate microtiter wells already containing 100 μl of medium, resulting in the required final drug concentrations.
(§3) Following drug addition, the plates are incubated for an additional 48 h at 37° C., 5% CO2, 95% air, and 100% relative humidity. For adherent cells, the assay is terminated by the addition of cold TCA. Cells are fixed in situ by the gentle addition of 50 μl of cold 50% (w/v) TCA (final concentration, 10% TCA) and incubated for 60 minutes at 4° C. The supernatant is discarded, and the plates are washed five times with tap water and air dried. Sulforhodamine B (SRB) solution (1001) at 0.4% (w/v) in 1% acetic acid is added to each well, and plates are incubated for 10 minutes at room temperature. After staining, unbound dye is removed by washing five times with 1% acetic acid and the plates are air dried. Bound stain is subsequently solubilized with 10 mM trizma base, and the absorbance is read on an automated plate reader at a wavelength of 515 nm. For suspension cells, the methodology is the same except that the assay is terminated by fixing settled cells at the bottom of the wells by gently adding 50 μl of 80% TCA (final concentration, 16% TCA). Using the seven absorbance measurements [time zero, (Tz), control growth, (C), and test growth in the presence of drug at the five concentration levels (Ti)], the percentage growth is calculated at each of the drug concentrations levels. Percentage growth inhibition is calculated as: [(Ti−Tz)/(C−Tz)]×100 for concentrations for which Ti>/=Tz [(Ti−Tz)/Tz]×100 for concentrations for which Ti<Tz
(§4) Three dose response parameters are calculated for each experimental agent. […] The drug concentration resulting in total growth inhibition (TGI) is calculated from Ti=Tz. […] Values are calculated for each of these three parameters if the level of activity is reached; however, if the effect is not reached or is exceeded, the value for that parameter is expressed as greater or less than the maximum or minimum concentration tested.

[1] = tested on: sixty human tumor cell lines; assay: NCI DTP sixty human tumor cell line screen (SRB), means over the panel
RPMI-8226 (Leukemia) = assay: NCI DTP tumor cell line screen (SRB), RPMI-8226
Protocol: as §1, §2, §3, §4

UO-31 (Renal Cancer) = assay: NCI DTP tumor cell line screen (SRB), UO-31
Protocol: as §1, §2, §3, §4

KM12 (Colon Cancer) = assay: NCI DTP tumor cell line screen (SRB), KM12
Protocol: as §1, §2, §3, §4

[2] = tested on: NCI/ADR-RES (Breast Cancer)
Protocol: as §1, §2, §3, §4

[3] = tested on: MDA-MB-435 (Breast Cancer); assay: NCI DTP tumor cell line screen (SRB), MDA-MB-435
Protocol: as §1, §2, §3, §4

[4] = tested on: NCI-H460 (Non-Small Cell Lung Cancer)
Protocol: as §1, §2, §3, §4

[5] = tested on: NCI-H23 (Non-Small Cell Lung Cancer)
Protocol: as §1, §2, §3, §4

[6] = tested on: A549/ATCC (Non-Small Cell Lung Cancer); assay: NCI DTP tumor cell line screen (SRB), A549/ATCC
Protocol: as §1, §2, §3, §4

M14 (Melanoma) = assay: NCI DTP tumor cell line screen (SRB), M14
Protocol: as §1, §2, §3, §4

SK-MEL-2 (Melanoma) = assay: NCI DTP tumor cell line screen (SRB), SK-MEL-2
Protocol: as §1, §2, §3, §4

IGROV1 (Ovarian Cancer) = assay: NCI DTP tumor cell line screen (SRB), IGROV1
Protocol: as §1, §2, §3, §4

OVCAR-4 (Ovarian Cancer) = assay: NCI DTP tumor cell line screen (SRB), OVCAR-4
Protocol: as §1, §2, §3, §4

786-0 (Renal Cancer) = assay: NCI DTP tumor cell line screen (SRB), 786-0
Protocol: as §1, §2, §3, §4

[7] = tested on: HOP-62 (Non-Small Cell Lung Cancer); assay: NCI DTP tumor cell line screen (SRB), HOP-62
Protocol: as §1, §2, §3, §4

NCC(=O)Nc1ccc(-n2nc(C(F)(F)F)cc2-c2ccc3c(ccc4ccccc43)c2)cc1 [Compound 70, 2-Amino-N-{4-[5-(2-phenanthrenyl)-3-(trifluoromethyl)-1H-pyrazol-1-yl]-phenyl}-acetamide]
TGI (SW-620 (Colon Cancer)): 4.23E−06 | Mean Optical Densities (SW-620 (Colon Cancer); Log10 Concentration −4.0): 0.136 | Mean Optical Densities (SW-620 (Colon Cancer); Log10 Concentration −5.0): 0.127 | Percent Growth (SW-620 (Colon Cancer); Log10 Concentration −5.0): −32% | Mean Optical Densities (SW-620 (Colon Cancer); Log10 Concentration −6.0): 0.736 | Percent Growth (SW-620 (Colon Cancer); Log10 Concentration −6.0): 54% | Mean Optical Densities (SW-620 (Colon Cancer); Log10 Concentration −7.0): 1.198 | Percent Growth (SW-620 (Colon Cancer); Log10 Concentration −7.0): 100% | Mean Optical Densities (SW-620 (Colon Cancer); Log10 Concentration −8.0): 1.197 | Percent Growth (SW-620 (Colon Cancer); Log10 Concentration −8.0): 100% | concentration range completely suppressing cell growth in a diverse range of tumor cell lines [1]: 3 to 5 µM | GI50 ([1]; read-out: mean GI50 among the sixty cell lines, two-day treatment): 1200 nM | mean TGI among the sixty cell lines ([1]; two-day treatment): 3200 nM | TGI (RPMI-8226 (Leukemia)): 2.84E−06 | Mean Optical Densities (RPMI-8226 (Leukemia); Log10 Concentration −4.0): 0.229 | Mean Optical Densities (RPMI-8226 (Leukemia); Log10 Concentration −5.0): 0.164 | Percent Growth (RPMI-8226 (Leukemia); Log10 Concentration −5.0): −51% | Mean Optical Densities (RPMI-8226 (Leukemia); Log10 Concentration −6.0): 0.547 | Percent Growth (RPMI-8226 (Leukemia); Log10 Concentration −6.0): 42% | Mean Optical Densities (RPMI-8226 (Leukemia); Log10 Concentration −7.0): 0.701 | Percent Growth (RPMI-8226 (Leukemia); Log10 Concentration −7.0): 72% | Mean Optical Densities (RPMI-8226 (Leukemia); Log10 Concentration −8.0): 0.766 | Percent Growth (RPMI-8226 (Leukemia); Log10 Concentration −8.0): 85% | TGI (UO-31 (Renal Cancer)): 3.29E−06 | Mean Optical Densities (UO-31 (Renal Cancer); Log10 Concentration −4.0): 0.285 | Mean Optical Densities (UO-31 (Renal Cancer); Log10 Concentration −5.0): 0.161 | Percent Growth (UO-31 (Renal Cancer); Log10 Concentration −5.0): −64% | Mean Optical Densities (UO-31 (Renal Cancer); Log10 Concentration −6.0): 1.356 | Percent Growth (UO-31 (Renal Cancer); Log10 Concentration −6.0): 68% | Mean Optical Densities (UO-31 (Renal Cancer); Log10 Concentration −7.0): 1.563 | Percent Growth (UO-31 (Renal Cancer); Log10 Concentration −7.0): 84% | Mean Optical Densities (UO-31 (Renal Cancer); Log10 Concentration −8.0): 1.572 | Percent Growth (UO-31 (Renal Cancer); Log10 Concentration −8.0): 84% | TGI (KM12 (Colon Cancer)): 2.67E−06 | Mean Optical Densities (KM12 (Colon Cancer); Log10 Concentration −4.0): 0.264 | Mean Optical Densities (KM12 (Colon Cancer); Log10 Concentration −5.0): 0.146 | Percent Growth (KM12 (Colon Cancer); Log10 Concentration −5.0): −73% | Mean Optical Densities (KM12 (Colon Cancer); Log10 Concentration −6.0): 1.425 | Percent Growth (KM12 (Colon Cancer); Log10 Concentration −6.0): 54% | Mean Optical Densities (KM12 (Colon Cancer); Log10 Concentration −7.0): 2.044 | Percent Growth (KM12 (Colon Cancer); Log10 Concentration −7.0): 91% | Mean Optical Densities (KM12 (Colon Cancer); Log10 Concentration −8.0): 2.151 | Percent Growth (KM12 (Colon Cancer); Log10 Concentration −8.0): 98% | TGI [2]: 2.85E−06 | Mean Optical Densities ([2]; Log10 Concentration −4.0): 0.212 | Mean Optical Densities ([2]; Log10 Concentration −5.0): 0.229 | Percent Growth ([2]; Log10 Concentration −5.0): −59% | Mean Optical Densities ([2]; Log10 Concentration −6.0): 1.217 | Percent Growth ([2]; Log10 Concentration −6.0): 49% | Mean Optical Densities ([2]; Log10 Concentration −7.0): 1.878 | Percent Growth ([2]; Log10 Concentration −7.0): 98% | Mean Optical Densities ([2]; Log10 Concentration −8.0): 1.883 | Percent Growth ([2]; Log10 Concentration −8.0): 98% | TGI [3]: 3.14E−06 | Mean Optical Densities ([3]; Log10 Concentration −4.0): 0.347 | Mean Optical Densities ([3]; Log10 Concentration −5.0): 0.127 | Percent Growth ([3]; Log10 Concentration −5.0): −69% | Mean Optical Densities ([3]; Log10 Concentration −6.0): 1.126 | Percent Growth ([3]; Log10 Concentration −6.0): 68% | Mean Optical Densities ([3]; Log10 Concentration −7.0): 1.447 | Percent Growth ([3]; Log10 Concentration −7.0): 98% | Mean Optical Densities ([3]; Log10 Concentration −8.0): 1.502 | Percent Growth ([3]; Log10 Concentration −8.0): 103% | TGI [4]: 2.64E−06 | Mean Optical Densities ([4]; Log10 Concentration −4.0): 0.213 | Mean Optical Densities ([4]; Log10 Concentration −5.0): 0.173 | Mean Optical Densities ([4]; Log10 Concentration −6.0): 0.830 | Percent Growth ([4]; Log10 Concentration −6.0): 34% | Mean Optical Densities ([4]; Log10 Concentration −7.0): 1.499 | Percent Growth ([4]; Log10 Concentration −7.0): 77% | Mean Optical Densities ([4]; Log10 Concentration −8.0): 1.799 | Percent Growth ([4]; Log10 Concentration −8.0): 97% | TGI [5]: 2.87E−06 | Mean Optical Densities ([5]; Log10 Concentration −4.0): 0.156 | Mean Optical Densities ([5]; Log10 Concentration −5.0): 0.097 | Percent Growth ([5]; Log10 Concentration −5.0): −79% | Mean Optical Densities ([5]; Log10 Concentration −6.0): 1.255 | Percent Growth ([5]; Log10 Concentration −6.0): 67% | Mean Optical Densities ([5]; Log10 Concentration −7.0): 1.673 | Percent Growth ([5]; Log10 Concentration −7.0): 102% | Mean Optical Densities ([5]; Log10 Concentration −8.0): 1.672 | Percent Growth ([5]; Log10 Concentration −8.0): 101% | TGI [6]: 2.96E−06 | Mean Optical Densities ([6]; Log10 Concentration −4.0): 0.252 | Mean Optical Densities ([6]; Log10 Concentration −5.0): 0.155 | Percent Growth ([6]; Log10 Concentration −5.0): −57% | Mean Optical Densities ([6]; Log10 Concentration −6.0): 0.831 | Percent Growth ([6]; Log10 Concentration −6.0): 51% | Mean Optical Densities ([6]; Log10 Concentration −7.0): 1.149 | Percent Growth ([6]; Log10 Concentration −7.0): 86% | Mean Optical Densities ([6]; Log10 Concentration −8.0): 1.294 | Percent Growth ([6]; Log10 Concentration −8.0): 102% | TGI (M14 (Melanoma)): 5.37E−06 | Mean Optical Densities (M14 (Melanoma); Log10 Concentration −4.0): 0.256 | Mean Optical Densities (M14 (Melanoma); Log10 Concentration −5.0): 0.211 | Percent Growth (M14 (Melanoma); Log10 Concentration −5.0): −33% | Mean Optical Densities (M14 (Melanoma); Log10 Concentration −6.0): 0.916 | Percent Growth (M14 (Melanoma); Log10 Concentration −6.0): 90% | Mean Optical Densities (M14 (Melanoma); Log10 Concentration −7.0): 0.974 | Percent Growth (M14 (Melanoma); Log10 Concentration −7.0): 98% | Mean Optical Densities (M14 (Melanoma); Log10 Concentration −8.0): 0.975 | Percent Growth (M14 (Melanoma); Log10 Concentration −8.0): 98% | TGI (SK-MEL-2 (Melanoma)): 5.40E−06 | Mean Optical Densities (SK-MEL-2 (Melanoma); Log10 Concentration −4.0): 0.330 | Mean Optical Densities (SK-MEL-2 (Melanoma); Log10 Concentration −5.0): 0.289 | Mean Optical Densities (SK-MEL-2 (Melanoma); Log10 Concentration −6.0): 0.885 | Percent Growth (SK-MEL-2 (Melanoma); Log10 Concentration −6.0): 100% | Mean Optical Densities (SK-MEL-2 (Melanoma); Log10 Concentration −7.0): 0.956 | Percent Growth (SK-MEL-2 (Melanoma); Log10 Concentration −7.0): 117% | Mean Optical Densities (SK-MEL-2 (Melanoma); Log10 Concentration −8.0): 0.943 | Percent Growth (SK-MEL-2 (Melanoma); Log10 Concentration −8.0): 114% | TGI (IGROV1 (Ovarian Cancer)): 3.97E−06 | Mean Optical Densities (IGROV1 (Ovarian Cancer); Log10 Concentration −4.0): 0.302 | Mean Optical Densities (IGROV1 (Ovarian Cancer); Log10 Concentration −5.0): 0.235 | Percent Growth (IGROV1 (Ovarian Cancer); Log10 Concentration −5.0): −49% | Mean Optical Densities (IGROV1 (Ovarian Cancer); Log10 Concentration −6.0): 0.902 | Percent Growth (IGROV1 (Ovarian Cancer); Log10 Concentration −6.0): 74% | Mean Optical Densities (IGROV1 (Ovarian Cancer); Log10 Concentration −7.0): 1.103 | Percent Growth (IGROV1 (Ovarian Cancer); Log10 Concentration −7.0): 107% | Mean Optical Densities (IGROV1 (Ovarian Cancer); Log10 Concentration −8.0): 1.044 | Percent Growth (IGROV1 (Ovarian Cancer); Log10 Concentration −8.0): 97% | TGI (OVCAR-4 (Ovarian Cancer)): 3.41E−06 | Mean Optical Densities (OVCAR-4 (Ovarian Cancer); Log10 Concentration −4.0): 0.172 | Mean Optical Densities (OVCAR-4 (Ovarian Cancer); Log10 Concentration −5.0): 0.093 | Percent Growth (OVCAR-4 (Ovarian Cancer); Log10 Concentration −5.0): −82% | Mean Optical Densities (OVCAR-4 (Ovarian Cancer); Log10 Concentration −6.0): 1.086 | Percent Growth (OVCAR-4 (Ovarian Cancer); Log10 Concentration −6.0): 94% | Mean Optical Densities (OVCAR-4 (Ovarian Cancer); Log10 Concentration −7.0): 1.073 | Percent Growth (OVCAR-4 (Ovarian Cancer); Log10 Concentration −7.0): 92% | Mean Optical Densities (OVCAR-4 (Ovarian Cancer); Log10 Concentration −8.0): 1.114 | Percent Growth (OVCAR-4 (Ovarian Cancer); Log10 Concentration −8.0): 99% | TGI (786-0 (Renal Cancer)): 2.85E−06 | Mean Optical Densities (786-0 (Renal Cancer); Log10 Concentration −4.0): 0.299 | Mean Optical Densities (786-0 (Renal Cancer); Log10 Concentration −5.0): 0.181 | Percent Growth (786-0 (Renal Cancer); Log10 Concentration −5.0): −72% | Mean Optical Densities (786-0 (Renal Cancer); Log10 Concentration −6.0): 1.440 | Percent Growth (786-0 (Renal Cancer); Log10 Concentration −6.0): 60% | Mean Optical Densities (786-0 (Renal Cancer); Log10 Concentration −7.0): 1.897 | Percent Growth (786-0 (Renal Cancer); Log10 Concentration −7.0): 95% | Mean Optical Densities (786-0 (Renal Cancer); Log10 Concentration −8.0): 2.012 | Percent Growth (786-0 (Renal Cancer); Log10 Concentration −8.0): 104% | TGI [7]: 3.01E−06 | Mean Optical Densities ([7]; Log10 Concentration −4.0): 0.217 | Mean Optical Densities ([7]; Log10 Concentration −5.0): 0.155 | Percent Growth ([7]; Log10 Concentration −5.0): −70% | Mean Optical Densities ([7]; Log10 Concentration −6.0): 1.075 | Percent Growth ([7]; Log10 Concentration −6.0): 64% | Mean Optical Densities ([7]; Log10 Concentration −7.0): 1.330 | Percent Growth ([7]; Log10 Concentration −7.0): 93% | Mean Optical Densities ([7]; Log10 Concentration −8.0): 1.310 | Percent Growth ([7]; Log10 Concentration −8.0): 90%
